# Measurements reported in patent US10875850B2, “Pesticidally active azetidine sulfones amide isoxazoline derivatives” (SYNGENTA PARTICIPATIONS AG, priority 2016, dated 2020).
# How the values were obtained:
# Type in all cases: in vivo
# Diabrotica balteata = experiment: Example B1: Diabrotica balteata (corn root worm), maize sprouts sprayed; details: 96 h, read-out: effect in at least one of the two categories (mortality or growth inhibition)
# Protocol: Maize sprouts placed onto an agar layer in 24-well microtiter plates were treated with aqueous test solutions prepared from 10′000 ppm DMSO stock solutions by spraying. After drying, the plates were infested with L2 larvae (6 to 10 per well). The samples were assessed for mortality and growth inhibition in comparison to untreated samples 4 days after infestation. The following compounds gave an effect of at least 80% in at least one of the two categories (mortality or growth inhibition) at an application rate of 200 ppm: A01, A02, A03, A04, A05, A06, A07, A08, A09, A10, A11, A12, A13, A14, A15, A16, A17, A18, A19, A20, A21, A22, A23, A24, A25, A26, A27, A28, B01
# Plutella xylostella [1] = experiment: Example B4: Plutella xylostella (diamond back moth), artificial diet; details: 120 h, read-out: effect in at least one of the two categories (mortality or growth inhibition)
# Protocol: 24-well microtiter plates with artificial diet were treated with aqueous test solutions prepared from 10′000 ppm DMSO stock solutions by pipetting. After drying, the plates were infested with L2 larvae (10 to 15 per well). The samples were assessed for mortality and growth inhibition in comparison to untreated samples 5 days after infestation. The following compounds gave an effect of at least 80% in at least one of the two categories (mortality or growth inhibition) at an application rate of 200 ppm: A01, A02, A03, A04, A05, A06, A07, A08, A09, A10, A11, A12, A13, A14, A15, A16, A17, A18, A19, A20, A21, A22, A23, A24, A25, A26, A27, A28, B01
# Myzus persicae [2] = experiment: Example B8: Myzus persicae (green peach aphid), feeding/contact activity; details: 144 h
# Protocol: (§1) Sunflower leaf discs were placed onto agar in a 24-well microtiter plate and sprayed with aqueous test solutions prepared from 10′000 ppm DMSO stock solutions. After drying, the leaf discs were infested with an aphid population of mixed ages. The samples were assessed for mortality 6 days after infestation.
# Euschistus heros = experiment: Example B2: Euschistus heros (neotropical brown stink bug), soybean leaves sprayed; details: 120 h, read-out: effect in at least one of the two categories (mortality or growth inhibition)
# Protocol: Soybean leaves on agar in 24-well microtiter plates were sprayed with aqueous test solutions prepared from 10′000 ppm DMSO stock solutions. After drying the leaves were infested with N2 nymphs. The samples were assessed for mortality and growth inhibition in comparison to untreated samples 5 days after infestation. The following compounds gave an effect of at least 80% in at least one of the two categories (mortality or growth inhibition) at an application rate of 200 ppm: A01, A02, A03, A04, A05, A06, A07, A08, A09, A10, A11, A12, A13, A14, A15, A16, A17, A18, A19, A20, A21, A22, A23, A24, A25, A26, A27, A28, B01
# Tetranychus urticae [3] = experiment: Example B6: Tetranychus urticae (two-spotted spider mite), feeding/contact activity; details: 192 h, read-out: mortality on mixed population (mobile stages)
# Protocol: Bean leaf discs on agar in 24-well microtiter plates were sprayed with aqueous test solutions prepared from 10′000 ppm DMSO stock solutions. After drying the leaf discs were infested with a mite population of mixed ages. The samples were assessed for mortality on mixed population (mobile stages) 8 days after infestation.
# Thrips tabaci [4] = experiment: Example B7: Thrips tabaci (onion thrips), feeding/contact activity; details: 144 h
# Protocol: as §1, with “on” for “onto”, “in” for “in a”, “plates” for “plate”, “drying” for “drying,”, “a thrips” for “an aphid”
# Spodoptera littoralis [5] = experiment: Example B5: Spodoptera littoralis (Egyptian cotton leaf worm), feeding/contact activity; details: 72 h
# Protocol: Cotton leaf discs were placed onto agar in 24-well microtiter plates and sprayed with aqueous test solutions prepared from 10′000 ppm DMSO stock solutions. After drying the leaf discs were infested with five L1 larvae. The samples were assessed for mortality 3 days after infestation.
# Myzus persicae [6] = experiment: Example B3: Myzus persicae (green peach aphid), intrinsic activity; details: 120 h
# Protocol: Test compounds prepared from 10′000 ppm DMSO stock solutions were applied by pipette into 24-well microtiter plates and mixed with sucrose solution. The plates were closed with a stretched Parafilm. A plastic stencil with 24 holes was placed onto the plate and infested pea seedlings were placed directly on the Parafilm. The infested plate was closed with a gel blotting paper and another plastic stencil and then turned upside down. The samples were assessed for mortality 5 days after infestation.
# Spodoptera littoralis [7] = experiment: Comparative Example C2: Spodoptera littoralis, feeding/contact activity, various application rates; details: 3 days after infestation
# Protocol: (§2) Cotton leaf discs were placed onto agar in 24-well microtiter plates and sprayed with aqueous test solutions prepared from 10′000 ppm DMSO stock solutions. After drying the leaf discs were infested with five L1 larvae. The samples were assessed for mortality (%) 3 days after infestation at the various application rates. Example C3: Tetranychus urticae (Two-Spotted Spider Mite): Feeding/Contact Activity Bean leaf discs on agar in 24-well microtiter plates were sprayed with aqueous test solutions prepared from 10′000 ppm DMSO stock solutions. After drying the leaf discs were infested with a mite population of mixed ages. The samples were assessed for mortality on mixed population (%) (mobile stages) 8 days after infestation at the various application rates.
# Tetranychus urticae [8] = experiment: Comparative Example C3: Tetranychus urticae, feeding/contact activity, various application rates; details: 8 days after infestation
# Protocol: as §2
# Plutella xylostella [9] = experiment: Comparative Example C1: Plutella xylostella, feeding/contact activity, various application rates; details: 5 days after infestation
# Protocol: 24-well microtiter plates with artificial diet were treated with aqueous test solutions prepared from 10′000 ppm DMSO stock solutions by pipetting. After drying, the plates were infested with L2 larvae (10 to 15 per well). The samples were assessed for mortality (%) 5 days after infestation at the various application rates.
# Thrips tabaci [10] = experiment: Comparative Example C4: Thrips tabaci, feeding/contact activity, various application rates; details: 6 days after infestation
# Protocol: Sunflower leaf discs were placed on agar in 24-well microtiter plates and sprayed with aqueous test solutions prepared from 10′000 ppm DMSO stock solutions. After drying the leaf discs were infested with a thrips population of mixed ages. The samples were assessed for mortality (%) 6 days after infestation at the various application rates.
smiles,measurement,setting,value
"CS(=O)(=O)N1CC(NC(=O)c2ccc(C3=NOC(c4cc(Cl)c(F)c(Cl)c4)(C(F)(F)F)C3)c3c2CCC3)C1 (centres unmarked) [Compound B01, 7-[5-(3,5-dichloro-4-fluoro-phenyl)-5-(trifluoromethyl)-4H-isoxazol-3-yl]-N-(1-methylsulfonylazetidin-3-yl)indane-4-carboxamide]",percent control (mortality or growth inhibition) at 200 ppm,Diabrotica balteata,≥ 80%
same,percent control (mortality or growth inhibition) at 200 ppm,Plutella xylostella [1],≥ 80%
same,mortality at 200 ppm,Myzus persicae [2],≥ 80%
same,percent control (mortality or growth inhibition) at 200 ppm,Euschistus heros,≥ 80%
same,mortality at 200 ppm,Tetranychus urticae [3],≥ 80%
same,mortality at 200 ppm,Thrips tabaci [4],≥ 80%
same,mortality at 200 ppm,Spodoptera littoralis [5],≥ 80%
"CCS(=O)(=O)N1CC(NC(=O)c2ccc(C3=NO[C@@](c4cc(Cl)cc(Cl)c4)(C(F)(F)F)C3)cc2C)C1 [Compound A11, 4-[(5S)-5-(3,5-dichlorophenyl)-5-(trifluoromethyl)-4H-isoxazol-3-yl]-N-(1-ethylsulfonylazetidin-3-yl)-2-methyl-benzamide]",percent control (mortality or growth inhibition) at 200 ppm,Diabrotica balteata,≥ 80%
same,percent control (mortality or growth inhibition) at 200 ppm,Plutella xylostella [1],≥ 80%
same,percent control (mortality or growth inhibition) at 200 ppm,Euschistus heros,≥ 80%
same,mortality at 200 ppm,Tetranychus urticae [3],≥ 80%
same,mortality at 200 ppm,Thrips tabaci [4],≥ 80%
same,mortality at 200 ppm,Spodoptera littoralis [5],≥ 80%
same,mortality at 12 ppm,Myzus persicae [6],≥ 80%
Cc1cc(C2=NOC(c3cc(Cl)cc(Cl)c3)(C(F)(F)F)C2)ccc1C(=O)NC1CN(S(C)(=O)=O)C1 (centres unmarked) [Compound A02],Spodoptera littoralis larval average mortality (%),Spodoptera littoralis [7]; application rate 0.195 ppm,50%
same,Spodoptera littoralis larval average mortality (%),Spodoptera littoralis [7]; application rate 0.781 ppm,100%
same,Spodoptera littoralis larval average mortality (%),Spodoptera littoralis [7]; application rate 3.12 ppm,100%
same,Spodoptera littoralis larval average mortality (%),Spodoptera littoralis [7]; application rate 12.5 ppm,100%
same,Spodoptera littoralis larval average mortality (%),Spodoptera littoralis [7]; application rate 50 ppm,100%
same,Spodoptera littoralis larval average mortality (%),Spodoptera littoralis [7]; application rate 200 ppm,100%
same,Tetranychus urticae mixed population average mortality (%),Tetranychus urticae [8]; application rate 0.195 ppm,0%
same,Tetranychus urticae mixed population average mortality (%),Tetranychus urticae [8]; application rate 0.781 ppm,50%
same,Tetranychus urticae mixed population average mortality (%),Tetranychus urticae [8]; application rate 3.12 ppm,100%
same,Tetranychus urticae mixed population average mortality (%),Tetranychus urticae [8]; application rate 12.5 ppm,100%
same,Tetranychus urticae mixed population average mortality (%),Tetranychus urticae [8]; application rate 50 ppm,100%
same,Tetranychus urticae mixed population average mortality (%),Tetranychus urticae [8]; application rate 200 ppm,100%
same,Plutella xylostella larval average mortality (%),Plutella xylostella [9]; application rate 0.195 ppm,80%
same,Plutella xylostella larval average mortality (%),Plutella xylostella [9]; application rate 0.781 ppm,100%
same,Plutella xylostella larval average mortality (%),Plutella xylostella [9]; application rate 3.12 ppm,100%
same,Plutella xylostella larval average mortality (%),Plutella xylostella [9]; application rate 12.5 ppm,100%
same,Plutella xylostella larval average mortality (%),Plutella xylostella [9]; application rate 50 ppm,100%
same,Plutella xylostella larval average mortality (%),Plutella xylostella [9]; application rate 200 ppm,100%
same,Thrips tabaci mixed population average mortality (%),Thrips tabaci [10]; application rate 0.195 ppm,0%
same,Thrips tabaci mixed population average mortality (%),Thrips tabaci [10]; application rate 0.781 ppm,100%
same,Thrips tabaci mixed population average mortality (%),Thrips tabaci [10]; application rate 3.12 ppm,100%
same,Thrips tabaci mixed population average mortality (%),Thrips tabaci [10]; application rate 12.5 ppm,100%
same,Thrips tabaci mixed population average mortality (%),Thrips tabaci [10]; application rate 50 ppm,100%
same,Thrips tabaci mixed population average mortality (%),Thrips tabaci [10]; application rate 200 ppm,100%
